Data on 8 molecules can be found in ChEMBL document CHEMBL2040786, “Click chemistry-derived bivalent quinine inhibitors of P-glycoprotein-mediated cellular efflux” (Bioorg Med Chem Lett, 2012).

The target in data set [1] is T1, ATP-dependent translocase ABCB1 (Homo sapiens, UniProt P08183). In words: Inhibition of p-glycoprotein expressed in human MCF-7/DX1 cells assessed as accumulation of calcein-AM by FACS analysis. Type of data set: cell-based.
The target in data set [2] is T1, ATP-dependent translocase ABCB1. In words: Inhibition of p-glycoprotein expressed in human MCF-7/DX1 cells assessed as accumulation of calcein-AM at 1 uM by FACS analysis. Type of data set: cell-based.

T1 sequence (P08183 whole entry): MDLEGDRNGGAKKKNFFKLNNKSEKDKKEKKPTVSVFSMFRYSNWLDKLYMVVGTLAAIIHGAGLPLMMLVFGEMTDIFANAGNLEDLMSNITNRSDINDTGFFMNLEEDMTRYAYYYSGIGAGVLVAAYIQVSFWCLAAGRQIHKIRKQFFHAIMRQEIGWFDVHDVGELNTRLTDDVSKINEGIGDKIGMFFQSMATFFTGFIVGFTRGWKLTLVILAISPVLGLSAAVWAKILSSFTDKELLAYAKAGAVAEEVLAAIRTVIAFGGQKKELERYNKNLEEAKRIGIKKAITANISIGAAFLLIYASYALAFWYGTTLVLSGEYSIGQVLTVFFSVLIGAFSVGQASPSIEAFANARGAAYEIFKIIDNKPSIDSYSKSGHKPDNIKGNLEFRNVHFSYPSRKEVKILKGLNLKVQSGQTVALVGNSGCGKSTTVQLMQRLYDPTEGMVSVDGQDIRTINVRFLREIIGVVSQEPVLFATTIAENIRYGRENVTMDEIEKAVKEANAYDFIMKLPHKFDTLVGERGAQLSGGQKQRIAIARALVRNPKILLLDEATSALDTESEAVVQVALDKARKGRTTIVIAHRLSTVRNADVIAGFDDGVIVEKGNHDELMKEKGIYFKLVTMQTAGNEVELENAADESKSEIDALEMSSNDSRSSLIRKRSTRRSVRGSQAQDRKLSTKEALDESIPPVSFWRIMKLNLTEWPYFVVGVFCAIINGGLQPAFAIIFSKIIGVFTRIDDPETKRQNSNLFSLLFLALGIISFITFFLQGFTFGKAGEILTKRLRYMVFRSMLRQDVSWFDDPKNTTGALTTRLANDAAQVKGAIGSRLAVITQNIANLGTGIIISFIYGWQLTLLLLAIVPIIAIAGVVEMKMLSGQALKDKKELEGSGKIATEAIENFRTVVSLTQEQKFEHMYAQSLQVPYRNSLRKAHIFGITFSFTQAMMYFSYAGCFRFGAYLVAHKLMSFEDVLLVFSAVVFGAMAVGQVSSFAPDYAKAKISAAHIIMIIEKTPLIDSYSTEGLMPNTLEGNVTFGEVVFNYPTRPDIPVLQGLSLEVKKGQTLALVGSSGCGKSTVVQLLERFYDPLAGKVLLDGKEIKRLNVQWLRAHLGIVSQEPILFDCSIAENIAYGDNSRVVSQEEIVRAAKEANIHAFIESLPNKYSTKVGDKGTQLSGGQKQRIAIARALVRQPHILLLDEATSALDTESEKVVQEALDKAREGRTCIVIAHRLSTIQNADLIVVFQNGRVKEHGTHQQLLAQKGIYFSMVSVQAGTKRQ

As to `C=C[C@H]1CN2CC[C@H]1C[C@H]2[C@H](OC(=O)CCc1cn(CCC(=O)O[C@H](c2ccnc3ccc(OC)cc23)[C@@H]2C[C@@H]3CCN2C[C@@H]3C=C)nn1)c1ccnc2ccc(OC)cc12`, in data set [1], the IC50 (commonly the point on the concentration scale where inhibition reaches its midpoint) was 6.1 µM.
The same measure, in the same setting: to `C=C[C@H]1CN2CC[C@H]1C[C@H]2[C@H](OC(=O)CCCCn1cc(CCC(=O)O[C@H](c2ccnc3ccc(OC)cc23)[C@@H]2C[C@@H]3CCN2C[C@@H]3C=C)nn1)c1ccnc2ccc(OC)cc12` belongs 6.2 µM.
In the case of `C=C[C@H]1CN2CC[C@H]1C[C@H]2[C@H](OC(=O)CCCCCCn1cc(CCC(=O)O[C@H](c2ccnc3ccc(OC)cc23)[C@@H]2C[C@@H]3CCN2C[C@@H]3C=C)nn1)c1ccnc2ccc(OC)cc12`, the IC50 in data set [1] is 3.6 µM.
On the same count and under the same terms, to `C=C[C@H]1CN2CC[C@H]1C[C@H]2[C@H](OC(=O)CCCCc1cn(CCCCC(=O)O[C@H](c2ccnc3ccc(OC)cc23)[C@@H]2C[C@@H]3CCN2C[C@@H]3C=C)nn1)c1ccnc2ccc(OC)cc12` belongs 4.6 µM.
As to `C=C[C@H]1CN2CC[C@H]1C[C@H]2[C@H](OC(=O)CCCCCCn1cc(CCCCC(=O)O[C@H](c2ccnc3ccc(OC)cc23)[C@@H]2C[C@@H]3CCN2C[C@@H]3C=C)nn1)c1ccnc2ccc(OC)cc12`, the IC50 in data set [1] is 2.9 µM.
The same measure, in the same setting: to `C=C[C@H]1CN2CC[C@H]1C[C@H]2[C@H](OC(=O)CCCCCCc1cn(CCCCC(=O)O[C@H](c2ccnc3ccc(OC)cc23)[C@@H]2C[C@@H]3CCN2C[C@@H]3C=C)nn1)c1ccnc2ccc(OC)cc12` belongs 2.8 µM.
On to `C=C[C@H]1CN2CC[C@H]1C[C@H]2[C@H](OC(=O)CCCCCCc1cn(CCCCCCC(=O)O[C@H](c2ccnc3ccc(OC)cc23)[C@@H]2C[C@@H]3CCN2C[C@@H]3C=C)nn1)c1ccnc2ccc(OC)cc12`, for which, in data set [2], the “inhibition (INH)” value is reported as “Active”. Also, the IC50 in data set [1] is 2.7 µM.
Take `C=C[C@H]1CN2CC[C@H]1C[C@H]2[C@H](OC(=O)CCCCCCCCc1cn(CCCCCCCCC(=O)O[C@H](c2ccnc3ccc(OC)cc23)[C@@H]2C[C@@H]3CCN2C[C@@H]3C=C)nn1)c1ccnc2ccc(OC)cc12`: the IC50 in data set [1] is 4.5 µM.
